# Reference: publication PMC11532403 (Signal Transduction and Targeted Therapy, 2024)
# Where two headings read alike, the source gives them in different places.
# Columns and labels:
# RET^WT = biological target: T1, RET^WT (Homo sapiens, UniProt P07949); assay: HTRF kinEASE-TK kinase assay; conditions: ATP at Km; read-out: Biochemical IC50 RET^WT
# T1 construct: RET (residues 658-1114) was cloned into pFastBac vector containing an N-terminal Glutathione S-transferase (GST) tag; made in house; host or cells: Sf9 insect cells (baculovirus)
# T1 sequence (P07949 658-1114): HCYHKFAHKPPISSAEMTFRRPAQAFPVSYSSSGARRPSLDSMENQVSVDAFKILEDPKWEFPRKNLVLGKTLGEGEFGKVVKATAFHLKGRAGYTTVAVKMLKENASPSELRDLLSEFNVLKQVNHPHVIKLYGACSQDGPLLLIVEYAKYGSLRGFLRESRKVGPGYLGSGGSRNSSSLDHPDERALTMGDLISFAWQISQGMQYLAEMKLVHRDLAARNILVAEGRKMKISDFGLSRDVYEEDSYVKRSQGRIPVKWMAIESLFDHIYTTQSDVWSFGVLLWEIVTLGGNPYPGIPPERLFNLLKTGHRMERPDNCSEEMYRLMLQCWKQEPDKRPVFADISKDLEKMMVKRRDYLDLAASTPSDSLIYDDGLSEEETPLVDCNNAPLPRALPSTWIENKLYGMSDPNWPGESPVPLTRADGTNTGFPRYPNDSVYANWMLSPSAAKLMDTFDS
# Procedure: (§1) RET (residues 658-1114) was cloned into pFastBac vector containing an N-terminal Glutathione S-transferase (GST) tag. Mutagenesis was performed on this vector to generate the RET^V804M single mutant: RETV804MmutF: […]a[…] and RETV804MmutR: […]t[…]; the RET^M918T single mutant: RETM918TmutF: […]c[…] and RETM918TmutR: […]g[…]; the RET^G810S single mutant: RETG810SmutF: […]tc[…] and RETG810SmutR: […]ga[…]. Recombinant baculovirus for expression of GST-RET was generated by co-transfection of Sf9 cells. Plaque-purified viruses were amplified, titrated and used to infect Sf9 cells incubated at 27 °C and 80 rpm. Cells were harvested 72 h post infection for protein purification.
# (§2) Frozen cell pellets (1 liter culture/each) were thawed and resuspended in 20 ml of buffer A (50mM Tris-HCl, pH 7.5, 150mM NaCl, 0.1mM EDTA, 0.5% Triton X-100, 20% glycerol and 1* protease inhibitor [#539134-1SETCN, Merck]) and sonicated. The cell lysates were centrifuged at 20000 rpm for 40 min at 4 °C, then applied to GSH-Sepharose 4 Fast Flow (GE Healthcare) at 4 °C. After washing twice with 10 mL of buffer B (50mM Tris-HCl, pH 7.5, 150mM NaCl, 0.1 mM EDTA, 20% glycerol), the protein was eluted with elution buffer (50mM Tris-HCl, pH 7.5, 150mM NaCl, 0.1mM EDTA, 20% glycerol, 20mM Glutathione, 1 mM DTT) and concentrated using Amicon Ultra-15. Purities of proteins were 90% as determined by SDS-PAGE and Coomassie Blue stain.
# (§3) Kinase activity was detected using CisBio HTRF kinEASE-TK kit. The assay was performed in 384-well white plates (#3574, Corning) in a reaction volume of 10 μL containing a final concentration of 50 mM HEPES, pH 7.5, 0.1 mM Na3VO4,0.01% BSA, 0.001% Tween-20, 5 mM MgCl2, […], 1 mM DTT, 1 μM TK-Substrate-biotin. The reaction was initiated by the addition of ATP at Km and indicated recombinant RET proteins. […] After incubation at 23 °C for 1 hour, FRET signal was measured on an EnVision reader (PerkinElmer Inc.).
# RET^G810S = biological target: T2, RET^G810S (Homo sapiens, UniProt P07949, G810S); assay: HTRF kinEASE-TK kinase assay; conditions: ATP at Km; read-out: Biochemical IC50 RET^G810S
# T2 construct: RET (residues 658-1114) was cloned into pFastBac vector containing an N-terminal Glutathione S-transferase (GST) tag; made in house; host or cells: Sf9 insect cells (baculovirus)
# T2 sequence (P07949 658-1114 G810S): as the sequence (P07949 658-1114) above, with G153S counted along it
# Procedure: as §1, §2, §3
# RET^M918T = biological target: T3, RET^M918T (Homo sapiens, UniProt P07949, M918T); assay: HTRF kinEASE-TK kinase assay; conditions: ATP at Km; read-out: Biochemical IC50 RET^M918T
# T3 construct: RET (residues 658-1114) was cloned into pFastBac vector containing an N-terminal Glutathione S-transferase (GST) tag; made in house; host or cells: Sf9 insect cells (baculovirus)
# T3 sequence (P07949 658-1114 M918T): as the sequence (P07949 658-1114) above, with M261T counted along it
# Procedure: as §1, §2, §3
# Pharmacokinetics in rats = format: in vivo, SD rats
# beagles = assay: 28-day repeat-dose toxicity; format: in vivo
# [1] = Plasma protein binding, rapid equilibrium dialysis; format: in vitro ADME; conditions: dog, read-out: Plasma protein binding rate (converted)
# Caco-2 permeability = format: in vitro ADME, human
# [2] = Pharmacokinetics in beagles; format: in vivo; conditions: both sexes, beagle, dog, plasma, iv, 1 mg/kg i.v.
# CYP1A2 = assay: CYP induction in hepatocytes; format: in vitro ADME, human; conditions: 1, 5, 50 μM, three donors
# [3] = Plasma protein binding, rapid equilibrium dialysis; format: in vitro ADME; conditions: human, read-out: Plasma protein binding rate (converted)
# [4] = both sexes, SD, rat, plasma, iv, 1 mg/kg i.v.
# [5] = both sexes, SD, rat, plasma, po, gavage 5 mg/kg
# [6] = both sexes, SD, rat, plasma, po, gavage 20 mg/kg
# [7] = both sexes, SD, rat, plasma, po, gavage 50 mg/kg
structure (smiles),measurement,setting,value
"COc1ccc(CN2C3CC2CN(c2ccc(-c4cc(N5CC(C)(O)C5)cn5ncc(C#N)c45)cn2)C3)cn1 [SY-5007, 6-(3-hydroxy-3-methylazetidin-1-yl)-4-(6-(6-((6-methoxypyridin-3-yl)methyl)-3,6-diazabicyclo[3.1.1]heptan-3-yl)pyridin-3-yl)pyrazolo[1,5-a]pyridine-3-carbonitrile]",IC50,RET^WT,0.339 nM
same,IC50,RET^G810S,2.07 nM
same,IC50,RET^M918T,0.84 nM
same,clearance,Pharmacokinetics in rats; [4],3.42 mL/min/kg
same,half-life,Pharmacokinetics in rats; [4],3.34 h
same,Vd,"Pharmacokinetics in rats; both sexes, SD, rat, plasma, iv, 1 mg/kg i.v., read-out: Vss",0.697 L/kg
same,AUC(0-inf),Pharmacokinetics in rats; [5],11900 ng·h/mL
same,Cmax,Pharmacokinetics in rats; [5],2190 ng/mL
same,AUC(0-inf),Pharmacokinetics in rats; [6],48100 ng·h/mL
same,Cmax,Pharmacokinetics in rats; [6],7150 ng/mL
same,AUC(0-inf),Pharmacokinetics in rats; [7],112000 ng·h/mL
same,Cmax,Pharmacokinetics in rats; [7],12600 ng/mL
same,half-life,"Pharmacokinetics in rats; both sexes, SD, rat, plasma, po, gavage 5-50 mg/kg",3.61 to 4.49 h
same,MRT inf,"Pharmacokinetics in rats; both sexes, SD, rat, plasma, po, gavage 5-50 mg/kg, read-out: MRTINF_obs",4.92 to 6.96 h
same,bioavailability,"Pharmacokinetics in rats; both sexes, SD, rat, plasma, po, gavage 5-50 mg/kg, read-out: Oral bioavailability (F)",39.1 to 42.1%
same,Tmax,"Pharmacokinetics in rats; both sexes, SD, rat, plasma, po, single gavage 5, 20, 50 mg/kg",0.25 to 2 h
same,AUC0-24h increase day 7 vs day 1,"Pharmacokinetics in rats; males, 20 mg/kg once daily 7 days",47.3%
same,HNSTD,"beagles; female Beagle, GLP long toxicity study",8 mg/kg
same,HNSTD,"beagles; females, 28 days",8 mg/kg
same,HNSTD,"beagles; male Beagle, GLP long toxicity study",4 mg/kg
same,HNSTD,"beagles; males, 28 days",4 mg/kg
same,Bleeding tendency: gastric mucosa and ileum findings,"beagles; preclinical Beagle dogs, repeated dosing","? This drug was found to have gastric mucosal reddening and ileal discolouration in preclinical SD rats and Beagle dogs in repeated dosing tests, so the relevant provisions were made."
same,Electrolyte abnormalities (blood PK),beagles; preclinical Beagle repeated administration,"? Abnormalities such as blood PK were found in the preclinical SD rat and Beagle repeated administration test of this product, and the relevant regulations were carried out in consideration of the fact that similar mechanism of action drugs have been reported."
same,fraction unbound,[1],0.042
same,Permeability class,Caco-2 permeability,moderately permeable
same,clearance,[2],6.63 mL/min/kg
same,half-life,[2],3.27 h
same,Vd,[2]; read-out: Vss,1.43 L/kg
same,CYP1A2 induction,CYP1A2,no induction
same,fraction unbound,[3],0.061
